# Measurements: ChEMBL document CHEMBL1926603 (Bioorg Med Chem Lett, 2011)
# Key:
# [1] = system: Radical scavenging activity
# Description: Antioxidant activity assessed as DPPH radical scavenging activity after 30 mins
# cells [2] = conditions: Mus musculus, Melan-a
# Description: Cytotoxicity against mouse Melan-a cells by modified crystal voilet assay
# cells [3] = conditions: Mus musculus, Melan-a, 96 h
# Description: Depigmentation activity in mouse Melan-a cells assessed as inhibition of melanin formation after 4 days
# Tyrosinase = target: T1, Tyrosinase (Agaricus bisporus, UniProt O42713); assay: Inhibition of mushroom tyrosinase activity using L-tyrosin as substrate after 20 mins
# T1 sequence (O42713 whole entry): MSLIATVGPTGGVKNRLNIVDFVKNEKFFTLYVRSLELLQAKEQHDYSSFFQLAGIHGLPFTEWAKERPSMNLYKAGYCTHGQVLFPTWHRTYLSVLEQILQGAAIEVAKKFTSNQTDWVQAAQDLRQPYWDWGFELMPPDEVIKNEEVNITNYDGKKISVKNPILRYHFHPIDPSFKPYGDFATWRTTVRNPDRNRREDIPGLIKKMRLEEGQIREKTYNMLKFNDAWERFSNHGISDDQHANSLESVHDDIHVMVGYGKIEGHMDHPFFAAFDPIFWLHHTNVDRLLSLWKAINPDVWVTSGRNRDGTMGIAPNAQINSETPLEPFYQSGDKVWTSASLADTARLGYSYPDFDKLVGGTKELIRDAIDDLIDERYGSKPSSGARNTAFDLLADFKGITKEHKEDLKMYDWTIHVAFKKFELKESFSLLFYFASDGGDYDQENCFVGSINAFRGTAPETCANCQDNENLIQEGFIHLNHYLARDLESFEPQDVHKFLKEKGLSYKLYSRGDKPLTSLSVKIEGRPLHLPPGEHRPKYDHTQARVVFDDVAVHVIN
# [4] = Ratio of kojic acid IC50 to compound IC50 for depigmentation activity in mouse Melan-a cells assessed as inhibition of melanin formation after 4 days; format: functional
SMILES,IC50 [1],IC50 (cells [2]),IC50 (cells [3]),IC50 (Tyrosinase),Ratio IC50 [4]
O=C(OCc1cc(=O)c(O)co1)c1ccc2cc(O)ccc2c1,> 200 µM,> 200 µM,> 200 µM,9.65 µM,–
O=C(OCc1cc(=O)c(O)co1)c1ccc(O)cc1,> 200 µM,> 200 µM,> 200 µM,5.51 µM,–
COc1coc(COC(=O)C2(C)CCc3c(C)c(O)c(C)c(C)c3O2)cc1=O (stereo unspecified),19.8 µM,> 200 µM,> 200 µM,> 200 µM,–

# Molecules with a lower IC50 [1], results first:
IC50 [1],IC50 (cells [2]),IC50 (cells [3]),IC50 (Tyrosinase),SMILES,Ratio IC50 [4]
11.6 µM,56.5 µM,17.7 µM,5.36 µM,Cc1c(C)c2c(c(C)c1O)CCC(C)(C(=O)OCc1cc(=O)c(O)co1)O2 (racemic),90
10.1 µM,300 µM,> 300 µM,> 200 µM,Cc1c(C)c2c(c(C)c1O)CCC(C)(C(=O)O)O2 (stereo unspecified) [TROLOX],–
